One data set has as its system CDD-induced pancreatitis. Nature of the data set: Transfer of hemin/siRNA pretreated peritoneal cells into CDD-fed mice, histologic scoring. Format: in vivo. Conditions: recipients of peritoneal cells from hemin + siRNA injected mice; 2.5 d CDD; mean±SD, n=5-6/group. As for the experimental part: (A,B) Peritoneal cells were isolated from hemin-treated mice that were also injected intraperitoneally on alternate days with saline (−), HO-1 siRNA (construct #1 and #2), or scramble control (Sc) siRNA. The peritoneal cells were then used to examine HO-1 and HO-2 levels by immunoblotting. (C,D) Peritoneal cells were harvested from hemin/construct #2 HO-1 siRNA or hemin/scrambled siRNA injected mice then transferred into naive recipient littermates followed by immediate initiation of CDD feeding. At 2.5 d of CDD feeding, pancreata were collected for histologic scoring. Data for histology score are presented as mean±SD (n=5-6/group), and are 6.4±1.7 (scrambled) and 12.7±4.5 (HO-1 siRNA). […]
Hemin pretreated peritoneal cell transfer into CDD-fed mice. […] Mice were sacrificed after 2.5 d of CDD feeding, followed by isolation of the pancreata.(for histological and fluorescence staining) and blood. […] The severity of pancreatitis was scored using established histological criteria that assigned individual numerical scores (1=mild, 2=moderate, 3=severe) to edema, inflammation, hemorrhage; and alternate scores for parenchymal necrosis (3=focal, 5=sublobular, and 7=lobular). […]
HO-1 siRNA and hemin pretreated cell transfer. […] After 7 days, peritoneal cells were harvested and analyzed by immunoblotting using antibodies to HO-1/2. […]

Another data set concerns HO-1. The data set is described as follows: HO-1 knock-down in vivo by siRNA, immunoblot of peritoneal cells. Further details: species or system mice. Conditions: siRNA 2 mg/kg i.p. 3×, hemin on intervening days. The protocol: (A,B) Peritoneal cells were isolated from hemin-treated mice that were also injected intraperitoneally on alternate days with saline (−), HO-1 siRNA (construct #1 and #2), or scramble control (Sc) siRNA. The peritoneal cells were then used to examine HO-1 and HO-2 levels by immunoblotting. (C,D) Peritoneal cells were harvested from hemin/construct #2 HO-1 siRNA or hemin/scrambled siRNA injected mice then transferred into naive recipient littermates followed by immediate initiation of CDD feeding. At 2.5 d of CDD feeding, pancreata were collected for histologic scoring. Data for histology score are presented as mean±SD (n=5-6/group), and are 6.4±1.7 (scrambled) and 12.7±4.5 (HO-1 siRNA). (E) Pancreata from panels C,D were double stained using antibodies to F4/80 and HO-1 (scale bar=20 μm).
HO-1 siRNA and hemin pretreated cell transfer. Mice were injected i.p. every other day (3 total injections) with either saline or with two HO-1 siRNA constructs (2 mg/kg body weight), or with a scrambled siRNA sequence. Hemin was injected in the intervening days (an additional 3 injections). After 7 days, peritoneal cells were harvested and analyzed by immunoblotting using antibodies to HO-1/2. […] The siRNAs were synthesized by Dharmacon Research Inc. (Lafayette, Colo.) and tested previously. Zhang, X., Shan, P., Jiang, D., Noble, P. W., Abraham, N. G., Kappas, A., and Lee, P. J. 2004. […]
(In general: A western blot detects proteins with antibodies after separation by electrophoresis.)

The values below come from patent publication US7745402B2, “Method of treating pancreatitis” (Lundbeck Inc., priority 2005, dated 2010).

d = 2'-deoxy (DNA); r = 2'-OH (RNA)

Turning to “HO-1 siRNA: HO-1 siRNA construct #2: 5′-GCCACACAGCACUAUGUAAdTdT-3′ (sense), 5′-UUACAUAGUGCUGUGUGGCdTdT-3′ (antisense) (sense GCCACACAGCACUAUGUAATT; antisense UUACAUAGUGCUGUGUGGCTT; chemistry not fully specified)”, the histology score in the data set with CDD-induced pancreatitis is 12.7±4.5. Besides, the “HO-1 level in peritoneal cells” value with HO-1 was “significant inhibition of HO-1”.

Consider “scrambled: nonspecific siRNA scrambled duplex: 5′-GCGCGCUUUGUAGGAUUCGdTdT-3′ (sense), 5′-CGAAUCCUACAAAGCGCGCdTdT-3′ (antisense) (sense GCGCGCUUUGUAGGAUUCGTT; antisense CGAAUCCUACAAAGCGCGCTT; sugars from the 5' end r19 d2, backbone not given here)”, for which the histology score in the data set on CDD-induced pancreatitis came out at 6.4±1.7.
